# Measured values taken from PMC7861629 (Bosnian Journal of Basic Medical Sciences, 2021).
# What was measured:
# [1] = children, 1000 mg vancomycin powder during spinal deformity surgery; cited from earlier work
# Experimental: Following the application of 1000 mg of vancomycin powder during sur ...
# [2] = rat
# Experimental: The weight of the pieces applied was 25.2 ± 1.6 mg (mean ± standard deviation [SD]) and the amount of vancomycin in the collagen sponge pieces was 11.2 ± 0.7 mg (mean ± SD). For placebo group (n = 6), a 10 mm × 10 mm piece of placebo-containing collagen sponge was applied. The pocket on the sham surgery side was sutured with no sponge so as to provide for a control.
# We administered 7.5 mg of vancomycin intraperitoneally to rats accompanied by a similar induction of s.c. infection; we measured the plasma levels in the same way as we did for the active arm.
# Blood samples (volume, 0.5 mL) for determination of vancomycin and haptoglobin levels were drawn from the jugular vein into a 0.5 mL heparinized syringe under isoflurane anesthesia. Samples were drawn from three animals in vancomycin group 0.5, 1, 2, and 4 h following inoculation on the 1st day to determine vancomycin and haptoglobin levels. Samples were also taken from all animals in placebo group on the 1st day 2 h following inoculation to determine haptoglobin level only. Samples from four animals in vancomycin group and two animals in placebo group were drawn on the 1st, 2nd, and 3rd day following inoculation. The final sample was drawn intracardially upon termination on day 4 following inoculation. The samples were centrifuged (12,000 rpm, 2 min) and the samples from days 1, 2, and 3 following inoculation were frozen at -20°C until analyzed. Vancomycin concentration in the blood as well as haptoglobin level (rat acute phase marker) were determined using a nephelometric method (Beckman Coulter, Indianapolis, IN, USA).
structure (smiles),measurement,setting,value
CN[C@H](CC(C)C)C(=O)N[C@H]1C(=O)N[C@@H](CC(N)=O)C(=O)N[C@H]2C(=O)N[C@H]3C(=O)N[C@H](C(=O)N[C@H](C(=O)O)c4cc(O)cc(O)c4-c4cc3ccc4O)[C@H](O)c3ccc(c(Cl)c3)Oc3cc2cc(c3O[C@@H]2O[C@H](CO)[C@@H](O)[C@H](O)[C@H]2O[C@H]2C[C@](C)(N)[C@H](O)[C@H](C)O2)Oc2ccc(cc2Cl)[C@H]1O [vancomycin],"vancomycin level in fluid drained by subfascial drain, day 0",[1],403 mg/L
same,"vancomycin level in fluid drained by subfascial drain, day 1",[1],251 mg/L
same,"vancomycin level in fluid drained by subfascial drain, day 2",[1],115 mg/L
same,"vancomycin level in plasma, day 0",[1],2.5 mg/L
same,"vancomycin level in plasma, day 1",[1],1.9 mg/L
same,"vancomycin level in plasma, day 2",[1],1.1 mg/L
same,AUC,"[2]; 7.5 mg vancomycin i.p., calculated from obtained levels",87.71 µg·h/mL
same,vancomycin level after 24 h,"[2]; 7.5 mg vancomycin i.p., detected in one animal only, nephelometric method",0.2 mg/L
same,expected AUC after 11.2 mg,"[2]; i.p., extrapolated from 7.5 mg dose to the sponge dose",130.9 µg·h/mL
